Laboratory results reported in patent US20200190592A1, “PME-1 AS A BIOMARKER TO PREDICT AND DIAGNOSE AN INCREASED RISK OF ENDOMETRIAL CANCER AND GENE SILENCING OF PME-1 TO INHIBIT EPITHELIAL TO MESENCHYMAL TRANSITION” (Medical Diagnostic Laboratories, L.L.C., priority 2018, published 2020).

Legend:
Type in all cases: cell-based, human
RL95-2 cells [1] = assay: Immunofluorescence for phosphorylated histone H3 (mitotic cells); details: −PME-1 cells compared to control cells
Protocol: Endometrial cancer cells were stained for phosphorylated histone H3 on serine 10, a marker of mitotic cells, followed by counterstaining with DAPI (FIG. 12) to identify all cells.
For analysis of patient samples, tissues were blocked for 2 hr with 10% FBS in TBST for at RT, incubated with each primary antibody (together) overnight at 4° C., washed three times for 15 min in TBST, incubated with each secondary fluorescent antibody (together) for 1 hr at RT, washed again as above, stained with DAPI and mounted with cover-slips using vectashield mounting media (Vector Labs). Primary antibodies used were for PME-1 (Santa Cruz), E-cadherin (Millipore), and vimentin (Genscript). 1×10^3RL95-2 cells were plated on a chamber slide and were incubated overnight at 37° C. Slides were fixed with 4% paraformaldehyde (PFA) on ice for two hours. The cells were incubated with the primary antibody to Histone 3 (pH3) phosphorylated at Ser10 (1:200, Cell Signaling Technologies) overnight and developed with the secondary anti-rabbit Alexa-Fluor 555 antibody (Cell Signaling Technologies). DAPI was used as a nuclear counter-stain (Sigma Aldrich). Images were taken with the Nikon Eclipse TE2000 at 20×.

ECC-1 cells = assay: Foci formation analysis in ECC-1 cells; details: 10 days
Protocol: We performed a foci formation analysis by transfecting (i) empty FLAG vector, (ii) FLAG-PPP2CA, (iii) FLAG-PPP4C, or (iv) FLAG-PPP6C into ECC-1 cells that stably expressed either (i) shSCR (non-targeting shRNA, black bars) or (ii) shPPME1 (depletes PME-1 levels, white bars) (FIG. 24).
(§1) 1,000 cells were plated in a six well tissue culture dish in selection media (to include 5 μg/ml puromycin) (InvivoGen). Cells were allowed to adhere and grow in a 5% CO2, 37° C. incubator for 10 to 14 days. Media was replaced every fourth day. Cells were stained with 1% crystal violet (Sigma Aldrich) for five minutes and rinsed with PBS. Colonies were counted and data is presented as the percentage of change compared to the control. All Experiments were repeated at least three times.

RL95-2 cells [2] = assay: Colony forming / invasive growth assay in Matrigel; details: RL95-2 in Matrigel
Protocol: To determine if PME-1 contributes to the more invasive and metastatic phenotypes, we performed a colony forming assay in matrigel.
The 3D On Top Matrigel Assay was completed in 24 well dishes as described previously {Lee, 2007 #1577}. Briefly, the bottoms of 24 well dishes were coated with 50 μl BD Matrigel Basement Matrix Phenol Red Free (BD Biosciences cat. #356237) and allowed to solidify at 37° C. 10^5 cells were suspended in 250 μl chilled medium containing either 10 ng/ml of TGF-b or vehicle and allowed to settle at 37° C. for 30 minutes. Chilled medium containing 10% of Matrigel was added by pipetting gently down the sidewall of the well and incubated at 37° C. for ten days changing top medium every second day. Colony counts were performed on the tenth day, averages were taken from three fields of view using a 10× objective. Experiment was repeated three times.

RL95-2 cells [3] = assay: BrDU incorporation assay; details: compared to scrambled shRNA control set to 100%
Protocol: To confirm our foci formation data that altering PME-1 levels in endometrial cancer cells affect their rate of cell proliferation, we conducted a BrDU incorporation assay. BrDU is incorporated into newly synthesized DNA and can be detected with antibodies; thus, increased BrDU incorporation correlates with an increased level of proliferation.
The BrDU Incorporation assay was completed with RL95-2 cell lines in media supplemented with 2.5 μg/ml puromycin. Cells were plated at 0.5*10^4 cells per well into a 96 well dish with 0% FBS and allowed to settle for 24 hours. The assay was completed as per kit instructions (Roche, Cell Proliferation ELISA, BrdU colorimetric cat. #11647229001). Briefly, 10 uM BrdU was added to the cells, 24 hours later cells were fixed and denatured with FixDenat from the kit and allowed to incubate with anti-BrdU antibody for up to two hours. Following the incubation and addition of the kit substrate, absorbances were read using FluoStar Galaxy.

RL95-2 cells [4] = assay: Foci forming assay in RL95-2 cells; details: RL95-2, PME-1 depleted, compared to control cells
Protocol: A foci forming assay was used in this study to monitor cell growth. Equal amounts of cells were plated and they were allowed to grow for a determined period of time (see Materials and Methods section for details). The foci that were formed were then stained with the crystal violet dye. Cells were washed […] with PBS prior to visualization. Numbers of foci were counted and results were averaged among different experiments.
To determine if the loss of active PME-1 accounted for the observed decrease in foci formation, we first treated RL95-2 cells with siRNA against the 3′-UTR of PPME1 to decrease endogenous levels of PME-1. […] The S156A PME-1 mutant is not capable of demethylating its target, PP2A.
as §1

phospho-ERK = assay: Western analysis of phospho-ERK in RL95-2 cells; details: compared to control cells; total ERK as reference
Protocol: When PME-1 was depleted with shRNA, there was a decrease in phospho-ERK compared to control cells.
15 μg of protein was used for western analysis. PME-1 antibody (Santa Cruz) and COXIV (Cell Signaling Technologies) were used for detection of proteins and the blots were developed using chemiluminescence (Pierce ECL Western Blotting Substrate—Thermo Scientific) on the GE ImageQuant LAS 4000. For analysis of Akt, ERK, and β-catenin signaling in tissue culture, western analyses were completed as follows. RL95-2 cells stably infected with lentivirus expressing constructs were selected with puromycin (Invivogen). The cells were incubated with either 50 μM Akt inhibitor (LY 294002, Cell Signaling Technologies) or 40 μM ERK inhibitor (V0126, Cell Signaling Technologies) for 1-2 hours at 37° C. 1.5× Laemelli buffer (0.5 M Tris pH6.8, […], 10% sodium dodecyl sulfate, 100 mM EDTA) was used to prepare cell lysates. 20 μg of protein was used for western analysis. Primary antibodies used were: P-Akt (Ser473), P-Akt (Thr308), pan-Akt, P-ERK (Thr202/204), total ERK (Cell Signaling Technologies), PME-1 (Santa Cruz), phospho-β-catenin (Ser45, Cell Signaling Technologies), phospho-β-catenin (Ser33/37/Thr41, Cell Signaling Technologies), β-catenin (Abcam), DcR2 (Abcam), and GAPDH (Abcam). All experiments were repeated several times with similar results.

In the case of “shPPME1 no. 2: shRNA targeting PPME1, SEQ ID NO: 2: GCAGCGATTATTAGTAGAGTT, bp 289-309; used for all subsequent experiments (guide GCAGCGATTATTAGTAGAGTT; listed as Homo sapiens)”, the “decreased proliferation (phospho-histone H3 positive cells)” value (RL95-2 cells [1]) is reported as about 30%, the foci formation (ECC-1 cells; ECC-1, empty FLAG vector, vs shSCR control) is reported as “significant decrease” and the foci formation (ECC-1 cells; ECC-1 transfected with PP2A, PP4 or PP6, vs shSCR) is reported as “significant decrease”. The “decrease in colony formation” value (RL95-2 cells [2]; 10 days, vs control cells) was 50%, the “colonies number and size” value (RL95-2 cells [2]; −TGF-β, compared to control cells) was “fewer and smaller colonies” and the “decrease in BrDU incorporation” value (RL95-2 cells [3]) was 40%. The decrease in foci (RL95-2 cells [4]) was 75% and the phospho-ERK (phospho-ERK) was “decrease”.
